Several values for one entry are separate records, joined by “and”; a condition that tells them apart may be missing. Equal entries are not always repeated. Toxic doses and inconclusive results are not listed.
Test system: CD2F1 mice, L1210 leukemia ip, survival T/C
Test: NCI In Vivo Anticancer Drug Screen. Data for tumor model L1210 Leukemia (intraperitoneal) in CD2F1 (CDF1) mice
Conditions: higher = longer survival
Outline: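 In this screen, transplantable tumors were grown in mice given either the compound or its vehicle. Results were expressed as the treated measurement relative to the control measurement.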

[1] = endpoint: mean survival time, dose: 75.0 mg/kg/injection, schedule: Q01DX001 (ip), vehicle: saline
[2] = endpoint: mean survival time, dose: 150.0 mg/kg/injection, schedule: Q01DX001 (ip), vehicle: saline
[3] = endpoint: mean survival time, dose: 100.0 mg/kg/injection, schedule: Q01DX001 (ip), vehicle: saline with Tween-80
[4] = endpoint: mean survival time, dose: 200.0 mg/kg/injection, schedule: Q01DX001 (ip), vehicle: saline with Tween-80
[5] = endpoint: mean survival time, dose: 400.0 mg/kg/injection, schedule: Q01DX001 (ip), vehicle: saline with Tween-80

Nc1ccn(C2OC(COP(=O)(O)Oc3ccccc3)C(O)C2O)c(=O)n1 (stereo not drawn)
T/C (endpoint: mean survival time, dose: 12.5 mg/kg/injection, schedule: Q01DX009 (ip), vehicle: suspension in saline): 162 % of control | T/C (endpoint: mean survival time, dose: 25.0 mg/kg/injection, schedule: Q01DX009 (ip), vehicle: suspension in saline): 194 % of control | T/C (endpoint: mean survival time, dose: 50.0 mg/kg/injection, schedule: Q01DX009 (ip), vehicle: suspension in saline): 202 % of control | T/C (endpoint: mean survival time, dose: 100.0 mg/kg/injection, schedule: Q01DX009 (ip), vehicle: suspension in saline): 223 % of control

NC(=O)c1csc(C2OC(COP(=O)(O)O)C(O)C2O)n1 (stereo not drawn)
T/C (endpoint: mean survival time, dose: 200.0 mg/kg/injection, schedule: Q01DX005 (ip), vehicle: water): 259 % of control | T/C (endpoint: mean survival time, dose: 400.0 mg/kg/injection, schedule: Q01DX005 (ip), vehicle: water): 155 % of control and 183 % of control | T/C (endpoint: mean survival time, dose: 600.0 mg/kg/injection, schedule: Q01DX005 (ip), vehicle: water): 160 % of control | T/C (endpoint: mean survival time, dose: 800.0 mg/kg/injection, schedule: Q01DX005 (ip), vehicle: water): 196 % of control

CC1=C2CCOC2=Nc2ccccc2O1
T/C [1]: 109 % of control | T/C [2]: 104 % of control | T/C (endpoint: mean survival time, dose: 300.0 mg/kg/injection, schedule: Q01DX001 (ip), vehicle: saline): 97 % of control

N=C(N)c1ccc(N=Nc2c(O)ccc3cc(O)ccc23)cc1
T/C (endpoint: median survival time, dose: 12.5 mg/kg/injection, schedule: Q01DX005 (ip), vehicle: Klucel (hydroxypropylcellulose) (HPC)): 104 % of control and 107 % of control | T/C (endpoint: median survival time, dose: 25.0 mg/kg/injection, schedule: Q01DX005 (ip), vehicle: Klucel (hydroxypropylcellulose) (HPC)): 100 % of control and 102 % of control | T/C (endpoint: median survival time, dose: 50.0 mg/kg/injection, schedule: Q01DX005 (ip), vehicle: Klucel (hydroxypropylcellulose) (HPC)): 90 % of control and 103 % of control | T/C (endpoint: median survival time, dose: 100.0 mg/kg/injection, schedule: Q01DX005 (ip), vehicle: Klucel (hydroxypropylcellulose) (HPC)): 95 % of control and 107 % of control | T/C (endpoint: median survival time, dose: 200.0 mg/kg/injection, schedule: Q01DX005 (ip), vehicle: Klucel (hydroxypropylcellulose) (HPC)): 104 % of control

C=C=CCCCCOC1CCCCO1 (stereo not drawn)
T/C [3]: 89 % of control | T/C [4]: 89 % of control | T/C [5]: 89 % of control

CCCCCC(C)C1=NC(C)(C)CC(C)O1 (stereo not drawn)
T/C (endpoint: mean survival time, dose: 5.0 mg/kg/injection, schedule: Q01DX009 (ip), vehicle: saline): 94 % of control | T/C (endpoint: mean survival time, dose: 10.0 mg/kg/injection, schedule: Q01DX009 (ip), vehicle: saline): 95 % of control | T/C (endpoint: mean survival time, dose: 20.0 mg/kg/injection, schedule: Q01DX009 (ip), vehicle: saline): 97 % of control | T/C [3]: 97 % of control | T/C [4]: 93 % of control

N#CC(O)c1ccc([N+](=O)[O-])cc1 (stereo not drawn)
T/C (endpoint: mean survival time, dose: 1.25 mg/kg/injection, schedule: Q04DX002 (ip), vehicle: saline with Tween-80): 101 % of control | T/C (endpoint: mean survival time, dose: 2.5 mg/kg/injection, schedule: Q04DX002 (ip), vehicle: saline with Tween-80): 101 % of control | T/C (endpoint: mean survival time, dose: 5.0 mg/kg/injection, schedule: Q04DX002 (ip), vehicle: saline with Tween-80): 101 % of control | T/C (endpoint: mean survival time, dose: 10.0 mg/kg/injection, schedule: Q04DX002 (ip), vehicle: saline with Tween-80): 97 % of control

CC1(C2CCN(Cc3ccccc3)CC2)OCCO1
T/C [1]: 101 % of control | T/C [2]: 97 % of control

CN1C=Cc2ccccc2C1
T/C [3]: 93 % of control | T/C (endpoint: mean survival time, dose: 100.0 mg/kg/injection, schedule: Q01DX009 (ip), vehicle: saline with Tween-80): 93 % of control | T/C [4]: 95 % of control | T/C [5]: 93 % of control

[Br][Pt+2][Br].[NH-]c1cccc(I)c1.[NH-]c1cccc(I)c1
T/C (endpoint: mean survival time, dose: 3.12 mg/kg/injection, schedule: Q04DX003 (ip), vehicle: distilled water + Tween-80): 98 % of control | T/C (endpoint: mean survival time, dose: 6.25 mg/kg/injection, schedule: Q04DX003 (ip), vehicle: distilled water + Tween-80): 101 % of control | T/C (endpoint: mean survival time, dose: 12.5 mg/kg/injection, schedule: Q04DX003 (ip), vehicle: distilled water + Tween-80): 101 % of control | T/C (endpoint: mean survival time, dose: 25.0 mg/kg/injection, schedule: Q04DX003 (ip), vehicle: distilled water + Tween-80): 101 % of control | T/C (endpoint: mean survival time, dose: 50.0 mg/kg/injection, schedule: Q04DX003 (ip), vehicle: distilled water + Tween-80): 101 % of control | T/C (endpoint: mean survival time, dose: 100.0 mg/kg/injection, schedule: Q04DX003 (ip), vehicle: distilled water + Tween-80): 98 % of control | T/C (endpoint: mean survival time, dose: 200.0 mg/kg/injection, schedule: Q04DX003 (ip), vehicle: distilled water + Tween-80): 114 % of control

CC(C)=CC(=O)CC(O)(C(F)(F)F)C(F)(F)Cl (stereo not drawn)
T/C (endpoint: mean survival time, dose: 100.0 mg/kg/injection, schedule: Q04DX003 (ip), vehicle: Klucel (hydroxypropylcellulose) (HPC)): 98 % of control | T/C (endpoint: mean survival time, dose: 200.0 mg/kg/injection, schedule: Q04DX003 (ip), vehicle: Klucel (hydroxypropylcellulose) (HPC)): 93 % of control
